Common to all, as to experiment: Indoor herbicide activity determination, Seed Treatment; pre-emergence (soil spray)
Format in all cases: in vivo

Assay [1] relates to Alopecurus myosuroides. An excerpt:
(§1) The testing method for herbicide activity of the compound of the present invention was as follows:
(§2) Seed Treatment; pre-emergence: quantitative seeds of gramineous weeds (Echinochloa crusgalli, Eleusine indica, Digitaria sanguinalis, Alopecurus japonicus, Beckmannia syzigachne, Leptochloa chinensis, Polypogon fugax, Alopecurus aequalis, Lolium multiflorum, Poa annua, Aegilops tauschii, Avena fatua, Alopecurus myosuroides, Alopecurus japonicus and Alopecurus aequalis), broad-leaved weeds (Eclipta prostrata, Amaranthus retroflexus, Rorippa indica, Malachium aquaticum, Veronica polita, Conyza canadensis, Sesbania cannabina, Sagittariatrifolia and Schoenoplectiella juncoides), and Cyperus iria were sown in plastic pots having a diameter of 7 cm and holes at the bottom and filled with nutrient soil (sandy soil, pH 6.1, organic matter 1%) respectively, the seeds were covered with an appropriate amount of soil after being sown, then the soil was wetted with water from the bottom, the seeds were cultured in a constant-temperature illuminated culture room for 24 h, and the soil was sprayed by using a 3WP-2000 traveling spray tower produced by the Nanjing Institute of Agricultural Mechanization of the Ministry of Agriculture, where a rotational speed of a main shaft was 96 mm/r, a spray height was 300 mm, an effective spraying range of a nozzle was 350 mm, a spray area was 0.35 m^2, and a flow rate at the nozzle was 390 mL/min.
(§3) Post-emergence: an appropriate quantity of seeds of gramineous weeds (Echinochloa crusgalli, Eleusine indica, Digitaria sanguinalis, Alopecurus japonicus, Beckmannia syzigachne, Leptochloa chinensis, Polypogon fugax, Alopecurus aequalis, Lolium multiflorum, Poa annua, Aegilops tauschii, Avena fatua, Alopecurus myosuroides, Alopecurus japonicus and Alopecurus aequalis), broad-leaved weeds (Eclipta prostrata, Amaranthus retroflexus, Rorippa indica, Malachium aquaticum, Veronica polita, Conyza canadensis, Sesbania cannabina, Sagittariatrifolia and Schoenoplectiella juncoides), and Cyperus iria were sown in plastic pots having a diameter of 7 cm and holes at the bottom and filled with nutrient soil (sandy soil, pH 6.1, organic matter 1%) respectively, the seeds were covered with an appropriate amount of soil after being sown, then the soil was wetted with water from the bottom, the seeds were cultured in a constant-temperature illuminated culture room until a 2-4 leaf stage, and stems and leaves underwent spray treatment. After the treatment, the test materials were placed in a laboratory and cultured in the constant-temperature illuminated culture room after the liquid was naturally dry in the shade, and results were determined 21 days later. Inhibition rate of fresh weight % = (1−(fresh weight of treated plants)/(fresh weight of control plants)) × 100% [formula]

Assay [2] deals with Eleusine indica.
Excerpt: as §1, §2, §3

Assay [3] concerns Leptochloa chinensis.
Excerpt: as §1, §2, §3

The subject of assay [4] is Alopecurus japonicus.
Excerpt: as §1, §2, §3

For assay [5], the system named is Lolium multiflorum.
Excerpt: as §1, §2, §3

Assay [6] concerns Cyperus iria. The settings on record: 120 g a.i./ha, read-out: Herbicidal activities (inhibition rate) Cyperus iria.
Excerpt: as §1, §2, §3

Assay [7] relates to Aegilops tauschii. The conditions noted are these: read-out: Herbicidal activities (inhibition rate) Aegilops tauschii; for inhibition at 120 g/ha: 120 g a.i./ha; for inhibition at 60 g/ha: 60 g a.i./ha.
Excerpt: as §1, §2, §3

The subject of assay [8] is Eclipta prostrata. The conditions noted are these: 60 g a.i./ha, read-out: Herbicidal activities (inhibition rate) Eclipta prostrata.
Excerpt: as §1, §2, §3

A word on the inhibition: it is the drop in the measured response relative to a control, in per cent. Regarding `C=CC1(C(=O)N[C@H]2C[C@@H](C(=O)OCCSC)C2)CC(c2cc(F)cc(F)c2)=NO1` (mixture of isomers) [I-8], the “Herbicidal activities, Alopecurus myosuroides (inhibition rate class)” value in assay [1] (Dosage 240 g a.i./ha) was “A (A indicates that the inhibition rate was greater than or equal to 80% to 100%)”. The “Herbicidal activities, Eleusine indica (inhibition rate class)” value in assay [2] (Dosage 240 g a.i./ha) is recorded as “A (A indicates that the inhibition rate was greater than or equal to 80% to 100%)”. For the same molecule, the “Herbicidal activities, Leptochloa chinensis (inhibition rate class)” value in assay [3] (Dosage 240 g a.i./ha) is listed as “A (A indicates that the inhibition rate was greater than or equal to 80% to 100%)”. In addition, in assay [4] (Dosage 240 g a.i./ha), the “Herbicidal activities, Alopecurus japonicus (inhibition rate class)” value is given as “A (A indicates that the inhibition rate was greater than or equal to 80% to 100%)”. For the same molecule, the “Herbicidal activities, Lolium multiflorum (inhibition rate class)” value in assay [5] (Dosage 240 g a.i./ha) is on record as “A (A indicates that the inhibition rate was greater than or equal to 80% to 100%)”. The inhibition at 120 g/ha in assay [6] and in assay [7] was 80 to 100% in each case.
For the molecule `C=C[C@]1(C(=O)N[C@H]2C[C@@H](C(=O)OCCOCC)C2)CC(c2cc(F)cc(OC(F)(F)F)c2)=NO1` [I-65], the “Herbicidal activities, Alopecurus myosuroides (inhibition rate class)” value in assay [1] (Dosage 120 g a.i./ha) was “A (A indicates that the inhibition rate was greater than or equal to 80% to 100%)”. In assay [2] (Dosage 120 g a.i./ha), the “Herbicidal activities, Eleusine indica (inhibition rate class)” value is recorded as “B (B indicates that the inhibition rate was greater than or equal to 60% to less than 80%)”. Moreover, in assay [3] (Dosage 120 g a.i./ha), the “Herbicidal activities, Leptochloa chinensis (inhibition rate class)” value is given as “A (A indicates that the inhibition rate was greater than or equal to 80% to 100%)”. The “Herbicidal activities, Alopecurus japonicus (inhibition rate class)” value in assay [4] (Dosage 120 g a.i./ha) is listed as “A (A indicates that the inhibition rate was greater than or equal to 80% to 100%)”. In assay [5] (Dosage 120 g a.i./ha), the “Herbicidal activities, Lolium multiflorum (inhibition rate class)” value is recorded as “A (A indicates that the inhibition rate was greater than or equal to 80% to 100%)”. Moreover, the inhibition at 60 g/ha in assay [7] was in the range of 80 to 100%; in assay [8], 60 to 80%.
With `CSCCOC(=O)[C@@H]1C=C[C@H](NC(=O)C2(C)CC(c3cc(F)cc(C(F)(F)F)c3)=NO2)C1` (stereo partly shown) [I-497], in assay [1] (Dosage 240 g a.i./ha), the “Herbicidal activity (inhibition rate class), Alopecurus myosuroides” value is “A (A indicates that the inhibition rate was greater than or equal to 80% to 100%)”. The “Herbicidal activity (inhibition rate class), Eleusine indica” value in assay [2] (Dosage 240 g a.i./ha) is on record as “A (A indicates that the inhibition rate was greater than or equal to 80% to 100%)”. The “Herbicidal activity (inhibition rate class), Leptochloa chinensis” value in assay [3] (Dosage 240 g a.i./ha) is “A (A indicates that the inhibition rate was greater than or equal to 80% to 100%)”. Besides, the “Herbicidal activity (inhibition rate class), Alopecurus japonicus” value in assay [4] (Dosage 240 g a.i./ha) is reported as “A (A indicates that the inhibition rate was greater than or equal to 80% to 100%)”. In addition, the “Herbicidal activity (inhibition rate class), Lolium multiflorum” value in assay [5] (Dosage 240 g a.i./ha) was “A (A indicates that the inhibition rate was greater than or equal to 80% to 100%)”. Further, the inhibition at 120 g/ha in assay [6] and in assay [7] was 80 to 100% each time.
For `C=C[C@]1(C(=O)N[C@H]2C[C@@H](C(=O)OCC(F)(F)C(F)F)C2)CC(c2cc(F)cc(OC(F)(F)F)c2)=NO1` [I-64], the “Herbicidal activities, Alopecurus myosuroides (inhibition rate class)” value in assay [1] (Dosage 120 g a.i./ha) is listed as “A (A indicates that the inhibition rate was greater than or equal to 80% to 100%)”. For the same molecule, in assay [2] (Dosage 120 g a.i./ha), the “Herbicidal activities, Eleusine indica (inhibition rate class)” value is given as “B (B indicates that the inhibition rate was greater than or equal to 60% to less than 80%)”. Moreover, in assay [3] (Dosage 120 g a.i./ha), the “Herbicidal activities, Leptochloa chinensis (inhibition rate class)” value was “A (A indicates that the inhibition rate was greater than or equal to 80% to 100%)”. Moreover, the “Herbicidal activities, Alopecurus japonicus (inhibition rate class)” value in assay [4] (Dosage 120 g a.i./ha) is reported as “A (A indicates that the inhibition rate was greater than or equal to 80% to 100%)”. For the same molecule, in assay [5] (Dosage 120 g a.i./ha), the “Herbicidal activities, Lolium multiflorum (inhibition rate class)” value is reported as “A (A indicates that the inhibition rate was greater than or equal to 80% to 100%)”. The inhibition at 60 g/ha was in the range of 60 to 80% in assay [7] and 80 to 100% in assay [8].

The values are drawn from EP4722201A1, “3-PHENYLISOXAZOLINE-5-CARBOXAMIDE COMPOUND, AND PREPARATION METHOD THEREFOR, HERBICIDAL COMPOSITION THEREOF AND USE THEREOF” (Jiangsu Flag Chemical Industry Co., Ltd, priority 2023, dated 2024).
